Source: patent publication US8735398B2 (Bristol-Myers Squibb Company, priority 2009, dated 2014)

system: HCV 1b genotype; assay: HCV replicon assay (HCV-neo replicon cells, wild-type); format: cell-based, Hepatitis C virus; settings: HCV 1b genotype replicon; class symbol; read-out: EC50 Range against HCV 1b
How it was run: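 HCV-neo replicon cells (wild-type) and replicon cells carrying NS5A resistance substitutions were treated with compounds; assay per O'Boyle et al. 2005, with luciferase-reporter read-out variants also used.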

Compound | EC50 [nM]
CCCC[C@H](NC(=O)Cc1ccccc1)C(=O)Nc1ccc(-c2cnc(-c3ccc(NC(=O)[C@H](CCCC)NC(=O)Cc4ccccc4)cc3)o2)cc1 [JG-17, (2S,2′S)-N,N′-(4,4′-(oxazole-2,5-diyl)bis(4,1-phenylene))bis(2-(2-phenylacetamido)hexanamide)] | 100 to 999

same assay, conditions: Hepatitis C virus, HCV 1b genotype replicon; class symbol; read-out: EC50 Range against HCV 1b

Compound | EC50 [nM]
CC(=O)N1CCC[C@H]1C(=O)Nc1ccc(-c2nnc(-c3ccc(NC(=O)[C@@H]4CCCN4C(=O)Cc4cccnc4)cc3)o2)cc1 [Example D-64, (2S)-1-acetyl-N-[4-[5-[4-[[[(2S)-1-(3-pyridinylacetyl)-2-pyrrolidinyl]carbonyl]amino]phenyl]-1,3,4-oxadiazol-2-yl]phenyl]-2-pyrrolidinecarboxamide] | 1000 to 10000
Cn1nc(-c2ccc(NC(=O)[C@@H]3CCCN3C(=O)Cc3ccccc3)cc2)cc1-c1ccc(NC(=O)[C@@H]2CCCN2C(=O)Cc2ccccc2)cc1 [FY-1, (2S,2′S)-N,N′-((1-methyl-1H-pyrazole-3,5-diyl)di-4,1-phenylene)bis(1-(phenylacetyl)-2-pyrrolidinecarboxamide)] | 100 to 999
CC(=O)N1CCC[C@H]1C(=O)Nc1ccc(-c2cc(-c3ccc(NC(=O)[C@@H]4CCCN4C(C)=O)cc3)n(C)n2)cc1 [FY-2, (2S,2′S)-N,N′-((1-methyl-1H-pyrazole-3,5-diyl)di-4,1-phenylene)bis(1-acetyl-2-pyrrolidinecarboxamide)] | 1000 to 10000
Cn1nc(-c2ccc(NC(=O)[C@@H]3CCCN3C(=O)OCc3ccccc3)cc2)cc1-c1ccc(NC(=O)[C@@H]2CCCN2C(=O)OCc2ccccc2)cc1 [FY-3, dibenzyl (2S,2′S)-2,2′-((1-methyl-1H-pyrazole-3,5-diyl)bis(4,1-phenylenecarbamoyl))di(1-pyrrolidinecarboxylate)] | 100 to 999
Cn1nc(-c2ccc(NC(=O)[C@@H]3CCCN3C(=O)C3CC3)cc2)cc1-c1ccc(NC(=O)[C@@H]2CCCN2C(=O)C2CC2)cc1 [FY-4, (2S,2′S)-N,N′-((1-methyl-1H-pyrazole-3,5-diyl)di-4,1-phenylene)bis(1-(cyclopropylcarbonyl)-2-pyrrolidinecarboxamide)] | 1000 to 10000
O=C(Nc1ccc(-c2cnc(-c3ccc(NC(=O)N[C@@H]4CCN(C(=O)[C@H](O)c5ccccc5)C4)cc3)o2)cc1)N[C@@H]1CCN(C(=O)[C@H](O)c2ccccc2)C1 [FY-5, N′,N′″-(1,3-oxazole-2,5-diyldi-4,1-phenylene)bis(1-((3R)-1-((2R)-2-hydroxy-2-phenylacetyl)-3-pyrrolidinyl)urea)] | 100 to 999
O=C(Nc1ccc(-c2cnc(-c3ccc(NC(=O)N[C@@H]4CCN(C(=O)[C@@H](O)c5ccccc5)C4)cc3)o2)cc1)N[C@@H]1CCN(C(=O)[C@@H](O)c2ccccc2)C1 [FY-6, N′,N′″-(1,3-oxazole-2,5-diyldi-4,1-phenylene)bis(1-((3R)-1-((2S)-2-hydroxy-2-phenylacetyl)-3-pyrrolidinyl)urea)] | 100 to 999
C[C@@](O)(C(=O)N1CC[C@@H](NC(=O)Nc2ccc(-c3cnc(-c4ccc(NC(=O)N[C@@H]5CCN(C(=O)[C@@](C)(O)c6ccccc6)C5)cc4)o3)cc2)C1)c1ccccc1 [FY-7, N′,N′″-(1,3-oxazole-2,5-diyldi-4,1-phenylene)bis(1-((3R)-1-(2-hydroxy-2-phenylpropanoyl)-3-pyrrolidinyl)urea)] | 100 to 999
CN(C)[C@@H](C(=O)N1CC[C@@H](NC(=O)Nc2ccc(-c3cnc(-c4ccc(NC(=O)N[C@@H]5CCN(C(=O)[C@@H](c6ccccc6)N(C)C)C5)cc4)o3)cc2)C1)c1ccccc1 [FY-8, N′,N′″-(1,3-oxazole-2,5-diyldi-4,1-phenylene)bis(1-((3R)-1-((2R)-2-(dimethylamino)-2-phenylacetyl)-3-pyrrolidinyl)urea)] | 100 to 999
CN(C)[C@@H](C(=O)N1CCCN1C(=O)Nc1ccc(-c2cnc(-c3ccc(NC(=O)N4CCCN4C(=O)[C@@H](c4ccccc4)N(C)C)cc3)o2)cc1)c1ccccc1 [FY-9, N,N′-(1,3-oxazole-2,5-diyldi-4,1-phenylene)bis(2-((2R)-2-(dimethylamino)-2-phenylacetyl)-1-pyrazolidinecarboxamide)] | 4.57 to 99
O=C(Nc1ccc(-c2cnc(-c3ccc(NC(=O)[C@@H]4CCCN4C(=O)OCc4ccccc4)cc3)o2)cc1)[C@@H]1CCCN1C(=O)OCc1ccccc1 [JG-1, dibenzyl (2S,2′S)-2,2′-(1,3-oxazole-2,5-diylbis(4,1-phenylenecarbamoyl))di(1-pyrrolidinecarboxylate)] | < 4.57
O=C(Nc1ccc(-c2cnc(-c3ccc(NC(=O)[C@@H]4C[C@@H](O)CN4C(=O)Cc4ccccc4)cc3)o2)cc1)[C@@H]1C[C@@H](O)CN1C(=O)Cc1ccccc1 [JG-2, (2S,4R,2′S,4′R)-N,N′-(1,3-oxazole-2,5-diyldi-4,1-phenylene)bis(4-hydroxy-1-(phenylacetyl)-2-pyrrolidinecarboxamide)] | < 4.57
O=C(Nc1ccc(-c2cnc(-c3ccc(NC(=O)[C@@H]4CCCN4C(=O)Cc4ccccc4)cc3)o2)cc1)[C@@H]1CCCN1C(=O)Cc1ccccc1 [JG-3, (2S,2′S)-N,N′-(1,3-oxazole-2,5-diyldi-4,1-phenylene)bis(1-(phenylacetyl)-2-pyrrolidinecarboxamide)] | < 4.57
CC(C)[C@H](NC(=O)OCc1ccccc1)C(=O)Nc1ccc(-c2cnc(-c3ccc(NC(=O)[C@@H](NC(=O)OCc4ccccc4)C(C)C)cc3)o2)cc1 [JG-4, dibenzyl (1,3-oxazole-2,5-diylbis(4,1-phenyleneimino((2S)-3-methyl-1-oxo-1,2-butanediyl)))biscarbamate] | 100 to 999
CC(C)[C@@H](NC(=O)OCc1ccccc1)C(=O)Nc1ccc(-c2cnc(-c3ccc(NC(=O)[C@H](NC(=O)OCc4ccccc4)C(C)C)cc3)o2)cc1 [JG-5, dibenzyl (1,3-oxazole-2,5-diylbis(4,1-phenyleneimino((2R)-3-methyl-1-oxo-1,2-butanediyl)))biscarbamate] | 1000 to 10000
O=C(Nc1ccc(-c2cnc(-c3ccc(NC(=O)[C@@H]4CCCCN4C(=O)Cc4ccccc4)cc3)o2)cc1)[C@@H]1CCCCN1C(=O)Cc1ccccc1 [JG-6, (2S,2′S)-N,N′-(1,3-oxazole-2,5-diyldi-4,1-phenylene)bis(1-(phenylacetyl)-2-piperidinecarboxamide)] | 100 to 999
CCC(=O)N1CCC[C@H]1C(=O)Nc1ccc(-c2cnc(-c3ccc(NC(=O)[C@@H]4CCCN4C(=O)CC)cc3)o2)cc1 [JG-8, (2S,2′S)-N,N′-(1,3-oxazole-2,5-diyldi-4,1-phenylene)bis(1-propionyl-2-pyrrolidinecarboxamide)] | 100 to 999
O=C(Nc1ccc(-c2cnc(-c3ccc(NC(=O)[C@@H]4CCCN4C(=O)C4CCC4)cc3)o2)cc1)[C@@H]1CCCN1C(=O)C1CCC1 [JG-9, (2S,2′S)-N,N′-(1,3-oxazole-2,5-diyldi-4,1-phenylene)bis(1-(cyclobutylcarbonyl)-2-pyrrolidinecarboxamide)] | 100 to 999
O=C(Nc1ccc(-c2cnc(-c3ccc(NC(=O)[C@@H]4CCCN4C(=O)c4ccncc4)cc3)o2)cc1)[C@@H]1CCCN1C(=O)c1ccncc1 [JG-10, (2S,2′S)-N,N′-(1,3-oxazole-2,5-diyldi-4,1-phenylene)bis(1-isonicotinoyl-2-pyrrolidinecarboxamide)] | 100 to 999
CC(=O)N1CCC[C@H]1C(=O)Nc1ccc(-c2cnc(-c3ccc(NC(=O)[C@@H]4CCCN4C(C)=O)cc3)o2)cc1 [JG-11, (2S,2′S)-N,N′-(1,3-oxazole-2,5-diyldi-4,1-phenylene)bis(1-acetyl-2-pyrrolidinecarboxamide)] | 1000 to 10000
CC(C)[C@H](NC(=O)Cc1ccccc1)C(=O)Nc1ccc(-c2cnc(-c3ccc(NC(=O)[C@@H](NC(=O)Cc4ccccc4)C(C)C)cc3)o2)cc1 [JG-12, (2S,2′S)-N,N′-(1,3-oxazole-2,5-diyldi-4,1-phenylene)bis(3-methyl-2-((phenylacetyl)amino)butanamide)] | 4.57 to 99
CSCC[C@H](NC(=O)Cc1ccccc1)C(=O)Nc1ccc(-c2cnc(-c3ccc(NC(=O)[C@H](CCSC)NC(=O)Cc4ccccc4)cc3)o2)cc1 [JG-13, (2S,2′S)-N,N′-(1,3-oxazole-2,5-diyldi-4,1-phenylene)bis(4-(methylsulfanyl)-2-((phenylacetyl)amino)butanamide)] | 100 to 999
CSC[C@H](NC(=O)Cc1ccccc1)C(=O)Nc1ccc(-c2cnc(-c3ccc(NC(=O)[C@H](CSC)NC(=O)Cc4ccccc4)cc3)o2)cc1 [JG-14, (2R,2′R)-N,N′-(1,3-oxazole-2,5-diyldi-4,1-phenylene)bis(3-(methylsulfanyl)-2-((phenylacetyl)amino)propanamide)] | 100 to 999
COCC[C@H](NC(=O)Cc1ccccc1)C(=O)Nc1ccc(-c2cnc(-c3ccc(NC(=O)[C@H](CCOC)NC(=O)Cc4ccccc4)cc3)o2)cc1 [JG-15, (2S,2′S)-N,N′-(1,3-oxazole-2,5-diyldi-4,1-phenylene)bis(4-methoxy-2-((phenylacetyl)amino)butanamide)] | 100 to 999
CC(C)(C)OC[C@H](NC(=O)Cc1ccccc1)C(=O)Nc1ccc(-c2cnc(-c3ccc(NC(=O)[C@H](COC(C)(C)C)NC(=O)Cc4ccccc4)cc3)o2)cc1 [JG-16, (2S,2′S)-N,N′-(1,3-oxazole-2,5-diyldi-4,1-phenylene)bis(3-tert-butoxy-2-((phenylacetyl)amino)propanamide)] | 100 to 999
O=C(Cc1ccccc1)NC1(C(=O)Nc2ccc(-c3cnc(-c4ccc(NC(=O)C5(NC(=O)Cc6ccccc6)CC5)cc4)o3)cc2)CC1 [JG-18, N,N′-(1,3-oxazole-2,5-diyldi-4,1-phenylene)bis(1-((phenylacetyl)amino)cyclopropanecarboxamide)] | 1000 to 10000
CO[C@H](C(=O)N1CCC[C@H]1C(=O)Nc1ccc(-c2cnc(-c3ccc(NC(=O)[C@@H]4CCCN4C(=O)[C@@H](OC)c4ccccc4)cc3)o2)cc1)c1ccccc1 [JG-19, (2S,2′S)-N,N′-(1,3-oxazole-2,5-diyldi-4,1-phenylene)bis(1-((2S)-2-methoxy-2-phenylacetyl)-2-pyrrolidinecarboxamide)] | 4.57 to 99

same assay, conditions: Hepatitis C virus, HCV 1b genotype replicon; read-out: EC50 1b

Compound | EC50 [nM]
CC(=O)N1CCC[C@H]1C(=O)Nc1ccc(-c2nnc(-c3ccc(NC(=O)[C@@H]4CCCN4C(=O)Cc4cccnc4)cc3)o2)cc1 [Example D-64, (2S)-1-acetyl-N-[4-[5-[4-[[[(2S)-1-(3-pyridinylacetyl)-2-pyrrolidinyl]carbonyl]amino]phenyl]-1,3,4-oxadiazol-2-yl]phenyl]-2-pyrrolidinecarboxamide] | 6570
O=C(Nc1ccc(-c2cnc(-c3ccc(NC(=O)[C@@H]4C[C@@H](O)CN4C(=O)Cc4ccccc4)cc3)o2)cc1)[C@@H]1C[C@@H](O)CN1C(=O)Cc1ccccc1 [JG-2, (2S,4R,2′S,4′R)-N,N′-(1,3-oxazole-2,5-diyldi-4,1-phenylene)bis(4-hydroxy-1-(phenylacetyl)-2-pyrrolidinecarboxamide)] | 2
CC(C)[C@@H](NC(=O)OCc1ccccc1)C(=O)Nc1ccc(-c2cnc(-c3ccc(NC(=O)[C@H](NC(=O)OCc4ccccc4)C(C)C)cc3)o2)cc1 [JG-5, dibenzyl (1,3-oxazole-2,5-diylbis(4,1-phenyleneimino((2R)-3-methyl-1-oxo-1,2-butanediyl)))biscarbamate] | 10000
CO[C@H](C(=O)N1CCC[C@H]1C(=O)Nc1ccc(-c2cnc(-c3ccc(NC(=O)[C@@H]4CCCN4C(=O)[C@@H](OC)c4ccccc4)cc3)o2)cc1)c1ccccc1 [JG-19, (2S,2′S)-N,N′-(1,3-oxazole-2,5-diyldi-4,1-phenylene)bis(1-((2S)-2-methoxy-2-phenylacetyl)-2-pyrrolidinecarboxamide)] | 9
